Results published in patent US12180207B2 (ARRAY BIOPHARMA INC., priority 2018, dated 2024).

Tests used:
[1] = biological target: FGFR3 (SEQ ID NO: 5, amino acids 449-759) (Homo sapiens (Human), UniProt P22607); experiment: LC/MS FGFR3 kobs assay (covalent protein modification); format: binding; conditions: 500 nM FGFR3, 3 μM compound
Outline: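 Each time-point sample was quenched in 0.4% formic acid and analyzed by Q-TOF LC/MS. Deconvoluted signals gave percent modified and unmodified protein, normalized to the DMSO control, and the decay of unmodified protein yielded kobs.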

[2] = biological target: dephosphorylated FGFR1 (SEQ ID NO: 1, amino acids 458 to 765) (Homo sapiens (Human), UniProt P11362); experiment: FGFR enzyme binding assay (HTRF tracer displacement), FGFR1; conditions: 5 nM dephosphorylated FGFR1, average of multiple determinations if made
dephosphorylated FGFR1 (SEQ ID NO: 1, amino acids 458 to 765), sequence (P11362 458-765): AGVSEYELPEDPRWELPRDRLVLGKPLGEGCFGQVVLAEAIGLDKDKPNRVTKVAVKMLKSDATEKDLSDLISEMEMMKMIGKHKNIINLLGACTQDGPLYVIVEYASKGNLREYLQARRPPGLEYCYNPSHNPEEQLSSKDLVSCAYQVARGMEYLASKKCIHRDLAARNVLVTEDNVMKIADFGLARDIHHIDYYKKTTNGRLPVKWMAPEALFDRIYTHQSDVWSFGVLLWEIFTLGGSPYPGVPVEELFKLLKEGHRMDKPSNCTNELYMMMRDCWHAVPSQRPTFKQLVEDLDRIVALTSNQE
Outline: (§1)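 Kinase and tracer were incubated with compound for 60 minutes at 22° C. Tracer displacement was then measured by HTRF, and results were expressed as POC with 1 μM control inhibitor defining full displacement.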

[3] = biological target: recombinant human FGFR1 catalytic domain (amino acids 308-731) (Homo sapiens (Human), UniProt P11362); experiment: FGFR1 enzyme activity assay (LanthaScreen TR-FRET); format: biochemical; conditions: 20 min incubation at 22° C., average of multiple determinations if made, read-out: FGFR1 Enz FRET IC50
recombinant human FGFR1 catalytic domain (amino acids 308-731), sequence (P11362 other isoform, or with tags, fused parts or gaps): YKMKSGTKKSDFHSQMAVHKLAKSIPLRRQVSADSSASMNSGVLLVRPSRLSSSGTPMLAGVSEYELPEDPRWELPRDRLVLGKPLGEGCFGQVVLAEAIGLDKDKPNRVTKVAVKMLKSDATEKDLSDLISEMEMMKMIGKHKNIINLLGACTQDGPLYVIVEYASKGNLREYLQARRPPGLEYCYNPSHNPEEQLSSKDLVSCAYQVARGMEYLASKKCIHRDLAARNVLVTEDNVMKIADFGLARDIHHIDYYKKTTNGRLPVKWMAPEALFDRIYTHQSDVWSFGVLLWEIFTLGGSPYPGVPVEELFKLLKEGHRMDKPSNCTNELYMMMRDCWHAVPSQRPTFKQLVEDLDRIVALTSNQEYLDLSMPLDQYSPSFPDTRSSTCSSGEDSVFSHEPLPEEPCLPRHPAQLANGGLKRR
Outline: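 His-tagged FGFR1 kinase domain with 100 nM Alexa Fluor 647-poly-GT peptide and ATP in pH 7.5 HEPES/MgCl2 buffer with 2% DMSO, 20 min at 22 °C. Quenched with EDTA plus 2 nM Eu-PY20 antibody and read after 60 min. IC50 comes from a 4-parameter fit of percent of control.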

[4] = biological target: phosphorylated FGFR3 (SEQ ID NO: 5, amino acids 449 to 759) (Homo sapiens (Human), UniProt P22607); experiment: FGFR enzyme binding assay (HTRF tracer displacement), FGFR3; conditions: 5 nM phosphorylated FGFR3, average of multiple determinations if made
phosphorylated FGFR3 (SEQ ID NO: 5, amino acids 449 to 759), sequence (P22607 449-759): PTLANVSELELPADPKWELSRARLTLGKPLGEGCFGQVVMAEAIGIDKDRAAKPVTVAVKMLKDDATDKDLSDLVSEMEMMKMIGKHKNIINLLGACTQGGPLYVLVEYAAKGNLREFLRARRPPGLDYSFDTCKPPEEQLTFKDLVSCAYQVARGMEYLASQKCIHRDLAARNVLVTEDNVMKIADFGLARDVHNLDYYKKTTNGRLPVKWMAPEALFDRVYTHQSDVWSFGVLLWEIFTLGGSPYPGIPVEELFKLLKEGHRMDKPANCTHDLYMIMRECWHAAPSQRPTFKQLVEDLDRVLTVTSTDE
Outline: as §1

[5] = biological target: FGFR1 (SEQ ID NO: 1, amino acids 458-765) (Homo sapiens (Human), UniProt P11362); experiment: LC/MS FGFR1 kobs assay (covalent protein modification); format: binding; conditions: 500 nM FGFR1, 3 μM compound
FGFR1 (SEQ ID NO: 1, amino acids 458-765), sequence (P11362 458-765): as the sequence (P11362 458-765) above
Outline: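 Covalent labeling of FGFR1 kinase domain (aa 458-765) tracked over time by intact-protein LC/MS after formic acid quench. kobs derived by fitting DMSO-normalized percent unmodified FGFR1 to an exponential decay model.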

[6] = biological target: recombinant human FGFR2 cytoplasmic domain (amino acids 403-822) (Homo sapiens (Human), UniProt P21802); experiment: FGFR2 enzyme activity assay (LanthaScreen TR-FRET); format: biochemical; conditions: 15 μM ATP, 20 min incubation at 22° C., average of multiple determinations if made, read-out: FGFR2 Enz FRET IC50
recombinant human FGFR2 cytoplasmic domain (amino acids 403-822), sequence (P21802 402-821): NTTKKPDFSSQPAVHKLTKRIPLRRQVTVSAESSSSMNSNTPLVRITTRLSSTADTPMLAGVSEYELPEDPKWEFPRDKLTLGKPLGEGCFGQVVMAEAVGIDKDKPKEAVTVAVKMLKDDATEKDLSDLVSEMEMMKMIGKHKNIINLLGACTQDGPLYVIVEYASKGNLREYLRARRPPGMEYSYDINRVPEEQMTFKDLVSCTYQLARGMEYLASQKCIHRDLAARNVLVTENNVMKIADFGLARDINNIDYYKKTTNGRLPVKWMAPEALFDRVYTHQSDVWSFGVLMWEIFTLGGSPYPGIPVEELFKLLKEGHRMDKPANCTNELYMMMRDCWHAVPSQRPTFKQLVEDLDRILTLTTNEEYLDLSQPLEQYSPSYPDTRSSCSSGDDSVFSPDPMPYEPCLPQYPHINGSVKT
Outline: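 Substrate phosphorylation was read by TR-FRET using Eu-PY20 antibody (60 min, 22 °C) after a 20 min, 22 °C reaction. The reaction used 15 μM ATP, 100 nM fluorescent poly-GT peptide and His-tagged FGFR2 403-822 ([…]) at pH 7.5 with 2% DMSO.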

FGFR3 (SEQ ID NO: 5, amino acids 449-759), sequence (P22607 449-759): as the sequence (P22607 449-759) above

Row | SMILES | FGFR3 Enz kobs [1] [min⁻¹] | IC50 [2] [nM] | IC50 [3] [nM] | IC50 [4] [nM] | FGFR1 Enz kobs [5] [min⁻¹] | IC50 [6] [nM]
1 | C=CC(=O)N1CCN(C(=O)N2CCC(n3cc(-c4cc(OC)c5c(C#N)cnn5c4)cn3)CC2)C[C@@H]1CC#N [Example 135, (S)-6-(1-(1-(4-acryloyl-3-(cyanomethyl)piperazine-1-carbonyl)piperidin-4-yl)-1H-pyrazol-4-yl)-4-methoxypyrazolo[1,5-a]pyridine-3-carbonitrile] | 0.02201 | 35 | 20 | 3 | 0.0029 | 4
2 | C#CC(=O)N1CC(C(=O)N2CCC(n3cc(-c4cc(OC)c5c(C#N)cnn5c4)cn3)CC2)C1 [Example 138, 4-methoxy-6-(1-(1-(1-propioloylazetidine-3-carbonyl)piperidin-4-yl)-1H-pyrazol-4-yl)pyrazolo[1,5-a]pyridine-3-carbonitrile] | 0.3446 | 27 | 7 | 2 | 0.01359 | 3
3 | COc1cc(-c2cnn(C3CCN(C(=O)C4CN(C(=O)/C=C/CO)C4)CC3)c2)cn2ncc(C#N)c12 [Example 141, (E)-6-(1-(1-(1-(4-hydroxybut-2-enoyl)azetidine-3-carbonyl)piperidin-4-yl)-1H-pyrazol-4-yl)-4-methoxypyrazolo [1,5-a]pyridine-3-carbonitrile] | 0.00171 | 40 | 43 | 6 | 0.00014 | 5
4 | COc1cc(-c2cnn(C3CCN(C(=O)C4CN(C(=O)/C=C/CN(C)C)C4)CC3)c2)cn2ncc(C#N)c12 [Example 143, (E)-6-(1-(1-(1-(4-(dimethylamino)but-2-enoyl)azetidine-3-carbonyl)piperidin-4-yl)-1H-pyrazol-4-yl)-4-methoxypyrazolo [1,5-a]pyridine-3-carbonitrile] | 0.02052 | 33 | 10 | 2 | 0.00278 | 2
5 | COc1cc(-c2cnn(C3CCN(C(=O)C4CN(C(=O)/C=C/CN5CCCCC5)C4)CC3)c2)cn2ncc(C#N)c12 [Example 145, (E)-4-methoxy-6-(1-(1-(1-(4-(piperidin-1-yl)but-2-enoyl)azetidine-3-carbonyl)piperidin-4-yl)-1H-pyrazol-4-yl)pyrazolo[1,5-a]pyridine-3-carbonitrile] | 0.01811 | 60 | 4 | 4 | 0.00179 | 3
6 | COc1cc(-c2cnn(C3CCN(CC4CN(C(=O)/C=C/CN(C)C)C4)CC3)c2)cn2ncc(C#N)c12 [Example 146, (E)-6-(1-(1-((1-(4-(dimethylamino)but-2-enoyl)azetidin-3-yl)methyl)piperidin-4-yl)-1H-pyrazol-4-yl)-4-methoxypyrazolo [1,5-a]pyridine-3-carbonitrile] | 0.01542 | 51 | 12 | 4 | 0.00306 | 2
7 | C=CC(=O)N1CC(CN2CCC(n3ncc(-c4cc(OC)c5c(C#N)cnn5c4)c3C)CC2)C1(C)C (stereo not drawn) [Example 151, 6-(1-(1-((1-acryloyl-2,2-dimethylazetidin-3-yl)methyl)piperidin-4-yl)-5-methyl-1H-pyrazol-4-yl)-4-methoxypyrazolo [1,5-a]pyridine-3-carbonitrile] | 0.0082 | 171 | 86 | 11 | 0.0008 | 9
8 | COc1cc(-c2cnn(C3CCN(C(=O)C4CN(C(=O)/C=C/CN(C)C)C4)CC3)c2C)cn2ncc(C#N)c12 [Example 152, (E)-6-(1-(1-(1-(4-(dimethylamino)but-2-enoyl)azetidine-3-carbonyl)piperidin-4-yl)-5-methyl-1H-pyrazol-4-yl)-4-methoxypyrazolo [1,5-a]pyridine-3-carbonitrile] | 0.03526 | 320 | 99 | 7 | 0.00338 | 35
9 | COc1cc(-c2cnn(C3CCN(C(=O)C4(F)CN(C(=O)/C=C/CN(C)C)C4)CC3)c2C)cn2ncc(C#N)c12 [Example 153, (E)-6-(1-(1-(1-(4-(dimethylamino)but-2-enoyl)-3-fluoroazetidine-3-carbonyl)piperidin-4-yl)-5-methyl-1H-pyrazol-4-yl)-4-methoxypyrazolo [1,5-a]pyridine-3-carbonitrile] | 0.1578 | 210 | 39 | 2 | 0.00975 | 4
10 | COC/C=C/C(=O)N1CC(F)(C(=O)N2CCC(n3ncc(-c4cc(OC)c5c(C#N)cnn5c4)c3C)CC2)C1 [Example 154, (E)-6-(1-(1-(3-fluoro-1-(4-methoxybut-2-enoyl)azetidine-3-carbonyl)piperidin-4-yl)-5-methyl-1H-pyrazol-4-yl)-4-methoxypyrazolo [1,5-a]pyridine-3-carbonitrile] | 0.00747 | 430 | 335 | 19 | 0.00081 | 16
11 | CC#CC(=O)N1CC(F)(C(=O)N2CCC(n3ncc(-c4cc(OC)c5c(C#N)cnn5c4)c3C)CC2)C1 [Example 156, 6-(1-(1-(1-(but-2-ynoyl)-3-fluoroazetidine-3-carbonyl)piperidin-4-yl)-5-methyl-1H-pyrazol-4-yl)-4-methoxypyrazolo [1,5-a]pyridine-3-carbonitrile] | 0.00585 | 598 | 375 | 18 | 0.0008 | 84
12 | COc1cc(-c2cnn(C3CCN(C(=O)C4(C)CN(C(=O)/C=C/CN(C)C)C4)CC3)c2C)cn2ncc(C#N)c12 [Example 157, (E)-6-(1-(1-(1-(4-(dimethylamino)but-2-enoyl)-3-methylazetidine-3-carbonyl)piperidin-4-yl)-5-methyl-1H-pyrazol-4-yl)-4-methoxypyrazolo [1,5-a]pyridine-3-carbonitrile] | 0.03267 | 274 | 90 | 6 | 0.0025 | 30
13 | COc1cc(-c2cnn(C3CCN(C(=O)C4(OC)CN(C(=O)/C=C/CN(C)C)C4)CC3)c2C)cn2ncc(C#N)c12 [Example 158, (E)-6-(1-(1-(1-(4-(dimethylamino)but-2-enoyl)-3-methoxyazetidine-3-carbonyl)piperidin-4-yl)-5-methyl-1H-pyrazol-4-yl)-4-methoxypyrazolo [1,5-a]pyridine-3-carbonitrile] | 0.1008 | 168 | 77 | 2 | 0.00588 | 30
